Data from patent publication US10098900B2, “Pharmaceutical compositions and their use for treatment of cancer and autoimmune diseases” (ZHEJIANG DTRM BIOPHARMA CO. LTD., priority 2015, dated 2018).
Marks after values point to notes of the source that are not given here.

Experiments:
TMD-8 cell line = assay: Inhibition assay of tumor cell activity (cell viability), TMD-8; format: cell-based, human; settings: individual compound; for inhibition at 0.01 µM / inhibition at 0.1 µM / inhibition at 1 µM / inhibition at 10 µM / inhibition at 100 µM: Homo sapiens, TMD8, 48 h, read-out: Inh % on TMD-8 cell line (AVG); for Inh % on TMD-8 cell line (AVG): 48 h
Protocol: Inhibition Assay of Tumor Cell Activity:
Tumor cells (TMD-8, DoHH2 and WSU-DLCL2) were transferred and attached to 96-well plates. After one night, blank buffer and selected concentrations (0.01 nM-100 μM) of the test compound solution were added. After 48 hours incubation, CellTiter-Go was added to lyse the cells. Recording luminescent signal and calculate the percent inhibition of cell viability

TMD-8 lymphoma xenograft = assay: Inhibition of tumor growth in vivo, TMD-8 lymphoma xenograft SCID mouse model; settings: TMD-8, Oral, BID
Protocol: Inhibition Study of Tumor Growth In Vivo:
SCID mice or nude mice (weighing about 18 g at the beginning of the experiment) were randomly divided into groups by the software in order to achieve close average weights between groups and control the bias within the allowable range. The mice were injected BTK cell lines (TMD-8, WSU-DLCL2 and DoHH-2) for tumor formation. Inhibitors were administered orally once or twice a day, a total of 14 days, 21 days or 28 days. Body weights and tumor volume were recorded.
Xenograft Tumor Models Inoculated with TMD-8, or DoHH2, or WSU-DLCL2 Tumor Cell Lines:
TMD-8 is a sensitive human diffuse large B-cell lymphoma cell line, and DoHH2 is a more difficult to treat human follicular lymphoma cell line, while WSU-DLCL2 is a multi-drug resistant (MDR) human non-Hodgkin's lymphoma cell line. Drug combination therapies provide better efficacies in all three tumor models than single targeted agent alone.
The TMD-8, DoHH2, WSU-DLCL2 tumor cells were maintained in vitro as a suspension culture in RPMI-1640 medium supplemented with 10% heat inactivated fetal calf serum at 37° C. in an atmosphere of 5% CO2 in air. The tumor cells were routinely subcultured twice weekly. The cells growing in an exponential growth phase were harvested and counted for tumor inoculation. Each mouse was inoculated subcutaneously at the right flank with the tumor cells (10×10^6) in 0.2 ml of PBS with Matrigel (1:1) for tumor development. The treatments were started after the average tumor size reached approximately 100-200 mm^3. Each group consisted of 6-10 tumor-bearing mice. The testing article (vehicle, compound or combination) was orally administrated to the mice according to the predetermined doses for 14-days or 21-days. Animal body weight and tumor volume were measured every 2- or 3-days throughout the treatment.

[1] = system: adjuvant-induced arthritis; assay: Adjuvant-induced arthritis (AA/AIA) model in female Lewis rats (paw volume, clinical score, histopathology); format: in vivo, rat; design: Pathological score (Mean ± SEM), Inflammatory cell infiltration / Pathological score (Mean ± SEM), Pannus growth / Pathological score (Mean ± SEM), Cartilage injury / Pathological score (Mean ± SEM), Bone resorption / Pathological score (Mean ± SEM), Total: scale not given here; settings: for Paw volume (mL), Mean: 3 mg/kg BID (positive control)
Source text: Adjuvant-Induced Arthritis AA Model: […] All rats except the normal group were immunized with complete Freund's adjuvant (CFA) subcutaneously at the left hind paw to induce arthritis at day 0. […] The treatments were given orally for 3 consecutive weeks. The body weight, paw volume and clinical score were monitored every other day after day 13 throughout the course of the study. At the terminal point, right hind paws were collected for histopathology analysis with H.E. staining.

| SMILES | inhibition at 0.01 µM (TMD-8 cell line; 0.01 uM (10 nM)) [%] | inhibition at 0.1 µM (TMD-8 cell line; 0.1 uM (100 nM)) [%] | inhibition at 1 µM (TMD-8 cell line; 1 uM (1,000 nM)) [%] | inhibition at 10 µM (TMD-8 cell line) [%] | inhibition at 100 µM (TMD-8 cell line) [%] | further results |
| --- | --- | --- | --- | --- | --- | --- |
| [2H]/C=C\C(=O)N1CC[C@@H](n2nc(-c3ccc(Oc4c(F)c(F)cc(F)c4F)cc3F)c3c(N)ncnc32)C1 [Compound 7] | 33.9 | 58.7 | 58.6 | 62.9 | 99.3 |  |
| CC[C@H](Nc1ncnc2[nH]cnc12)c1nc2cccc(F)c2c(=O)n1-c1ccccc1 [Compound 8, Idelalisib] | 29.4 | 48.8 | 68.9 | 87.7 | 96.8 | Antitumor effect (%) (TMD-8 lymphoma xenograft; FIG. 3, 21 days, 10 mg/kg): 26%; Antitumor effect (%) (TMD-8 lymphoma xenograft; FIG. 12, 14 days, 10 mg/kg): 48% |
| C=CC(=O)N1CCC[C@@H](n2nc(-c3ccc(Oc4ccccc4)cc3)c3c(N)ncnc32)C1 [Compound 9, Ibrutinib] | 56.2 | 59.1 | 66.1 | 81.4 | 99.9 |  |
| N#CC[C@H](C1CCCC1)n1cc(-c2ncnc3[nH]ccc23)cn1 [Compound 10, Ruxolitinib] | 0.05 | -5.53 | 101 |  |  |  |
| C[C@@H]1CCN(C(=O)CC#N)C[C@@H]1N(C)c1ncnc2[nH]ccc12 [Compound 11, Tofactinib] |  |  |  |  |  | Inh % on TMD-8 cell line (AVG) (TMD-8 cell line; 0.01 uM (10 nM)): 6.02%; Inh % on TMD-8 cell line (AVG) (TMD-8 cell line; 0.1 uM (100 nM)): 1.31%; Inh % on TMD-8 cell line (AVG) (TMD-8 cell line; 1 uM (1,000 nM)): 6.66%; Paw volume (mL), Mean ([1]; Day 0): 1.00 mL; Paw volume (mL), Mean ([1]; Day 17): 1.54*** mL; Paw volume (mL), Mean ([1]; Day 26): 1.37*** mL; Paw volume (mL), Mean ([1]; Day 28): 1.33*** mL; Paw volume (mL), Mean ([1]; Day 31): 1.23*** mL; Paw volume (mL), Mean ([1]; Day 33): 1.23*** mL; Pathological score (Mean ± SEM), Bone resorption ([1]; AA study, 11, 3 mg/kg): 0.5 ± 0.22; Pathological score (Mean ± SEM), Cartilage injury ([1]; AA study, 11, 3 mg/kg): 0.2 ± 0.20; Pathological score (Mean ± SEM), Inflammatory cell infiltration ([1]; AA study, 11, 3 mg/kg): 1.9 ± 0.18; Pathological score (Mean ± SEM), Pannus growth ([1]; AA study, 11, 3 mg/kg): 0.4 ± 0.22; Pathological score (Mean ± SEM), Total ([1]; AA study, 11, 3 mg/kg): 3.0 ± 0.73 |
| CC1(C)CCC(CN2CCN(c3ccc(C(=O)NS(=O)(=O)c4ccc(NCC5CCOCC5)c([N+](=O)[O-])c4)c(Oc4cnc5[nH]ccc5c4)c3)CC2)=C(c2ccc(Cl)cc2)C1 [Compound 12, Venetoclax] | 11.1 | 18.8 | 37.6 |  |  | Inh % on TMD-8 cell line (AVG) (TMD-8 cell line; 0.01 uM (10 nM)): 11.12%; Inh % on TMD-8 cell line (AVG) (TMD-8 cell line; 0.1 uM (100 nM)): 18.81%; Inh % on TMD-8 cell line (AVG) (TMD-8 cell line; 1 uM (1,000 nM)): 37.55%; Antitumor effect (%) (TMD-8 lymphoma xenograft; FIG. 12, 14 days, 5 mg/kg): 12% |
| Cc1cc(O)c(-c2ccc([C@@H](C)CN(C)C)cc2)c2c1[nH]c(=O)c1sccc12 [Compound 13, (R)-9-(4-(1-(dimethylamino)propan-2-yl)phenyl)-8-hydroxy-6-methylthieno[2,3-c]quinolin-4(5H)-one] | 8.71 | 49.1 | 101 |  |  |  |
